System: NCI-H1618 multicellular tumor spheroid viability
Assay: Anticancer human tumor NCI-H1618 cell line growth inhibition;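 also: spheroids exposed to agents for 7 days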
Settings: for IC50: curve of first compound; for viability, T/C: stronger effect = lower value; active = viability on the fitted dose curve at most 10% of control; inactive = the rest
Method in brief: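 Single agents and combinations were tested on spheroids built from tumor cells plus HUVEC and hMSC, at half-log dilutions starting at or near clinical Cmax, else 10 microM; final DMSO 0.25% (v/v).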

[2H]c1nc(C)nc([2H])c1-c1cc(NC[C@@H](C)c2cccc3c(C(=O)NC)ccnc23)ncn1 + Cn1nnc2c(C(N)=O)ncn2c1=O
inactive: viability, T/C (second compound 1 µM, first compound 0.0316 µM) 91.3% | viability, T/C (second compound 1 µM, first compound 0.1 µM) 91.9% | viability, T/C (second compound 1 µM, first compound 0.316 µM) 85.3% | viability, T/C (second compound 1 µM, first compound 1 µM) 85.3% | viability, T/C (second compound 1 µM, first compound 3.16 µM) 89.2% | viability, T/C (second compound 1 µM, first compound 10 µM) 89.3% | viability, T/C (second compound 3.16 µM, first compound 0.0316 µM) 33.1% | viability, T/C (second compound 3.16 µM, first compound 0.1 µM) 29.5% | viability, T/C (second compound 3.16 µM, first compound 0.316 µM) 21.9% | viability, T/C (second compound 3.16 µM, first compound 1 µM) 28.1% | viability, T/C (second compound 3.16 µM, first compound 3.16 µM) 13.1% | viability, T/C (second compound 3.16 µM, first compound 10 µM) 27.3% | viability, T/C (second compound 31.6 µM, first compound 0.0316 µM) 20.8% | viability, T/C (second compound 31.6 µM, first compound 0.1 µM) 19.9% | viability, T/C (second compound 31.6 µM, first compound 0.316 µM) 11.3% | viability, T/C (second compound 31.6 µM, first compound 1 µM) 15.1% | viability, T/C (second compound 100 µM, first compound 0.0316 µM) 61.9% | viability, T/C (second compound 100 µM, first compound 0.1 µM) 36.3% | viability, T/C (second compound 100 µM, first compound 0.316 µM) 22.1% | viability, T/C (second compound 100 µM, first compound 1 µM) 59% | viability, T/C (second compound 100 µM, first compound 3.16 µM) 46.6% | viability, T/C (second compound 100 µM, first compound 10 µM) 34.6%
< 31.6 nM: IC50 (second compound 3.16 µM) | IC50 (second compound 10 µM) | IC50 (second compound 31.6 µM) | IC50 (second compound 100 µM)
active: viability, T/C (second compound 10 µM, first compound 0.0316 µM) 4.05% | viability, T/C (second compound 10 µM, first compound 0.1 µM) 4.95% | viability, T/C (second compound 10 µM, first compound 0.316 µM) 5.87% | viability, T/C (second compound 10 µM, first compound 1 µM) 7.24% | viability, T/C (second compound 10 µM, first compound 3.16 µM) 4.35% | viability, T/C (second compound 10 µM, first compound 10 µM) 11.5% | viability, T/C (second compound 31.6 µM, first compound 3.16 µM) 6.28% | viability, T/C (second compound 31.6 µM, first compound 10 µM) 5.54%
> 10000 nM: IC50 (second compound 1 µM)

Cc1cc(C)c(CNC(=O)c2cc(-c3ccc(CN4CCOCC4)cc3)cc3c2cnn3C2CCCC2)c(=O)[nH]1 + CC[C@@]1(O)C(=O)OCc2c1cc1n(c2=O)Cc2cc3c(CN(C)C)c(O)ccc3nc2-1
> 10000 nM: IC50 (second compound 0.003 µM)
inactive: viability, T/C (second compound 0.003 µM, first compound 0.0316 µM) 90.8% | viability, T/C (second compound 0.003 µM, first compound 0.1 µM) 94.2% | viability, T/C (second compound 0.003 µM, first compound 0.316 µM) 94.5% | viability, T/C (second compound 0.003 µM, first compound 1 µM) 88.5% | viability, T/C (second compound 0.003 µM, first compound 3.16 µM) 83.1% | viability, T/C (second compound 0.003 µM, first compound 10 µM) 76.2% | viability, T/C (second compound 0.00949 µM, first compound 0.0316 µM) 58.5% | viability, T/C (second compound 0.00949 µM, first compound 0.1 µM) 38.5% | viability, T/C (second compound 0.00949 µM, first compound 0.316 µM) 51% | viability, T/C (second compound 0.00949 µM, first compound 1 µM) 27.2% | viability, T/C (second compound 0.00949 µM, first compound 3.16 µM) 17.3% | viability, T/C (second compound 0.00949 µM, first compound 10 µM) 12.7% | viability, T/C (second compound 0.3 µM, first compound 0.0316 µM) 19.2%
active: viability, T/C (second compound 0.03 µM, first compound 0.0316 µM) 1.8% | viability, T/C (second compound 0.03 µM, first compound 0.1 µM) 1.58% | viability, T/C (second compound 0.03 µM, first compound 0.316 µM) 1.81% | viability, T/C (second compound 0.03 µM, first compound 1 µM) 1.82% | viability, T/C (second compound 0.03 µM, first compound 3.16 µM) 1.84% | viability, T/C (second compound 0.03 µM, first compound 10 µM) 18.6% | viability, T/C (second compound 0.0949 µM, first compound 0.0316 µM) 1.32% | viability, T/C (second compound 0.0949 µM, first compound 0.1 µM) 1.44% | viability, T/C (second compound 0.0949 µM, first compound 0.316 µM) 1.43% | viability, T/C (second compound 0.0949 µM, first compound 1 µM) 2.27% | viability, T/C (second compound 0.0949 µM, first compound 3.16 µM) 1.46% | viability, T/C (second compound 0.0949 µM, first compound 10 µM) 2.04% | viability, T/C (second compound 0.3 µM, first compound 0.1 µM) 1.25% | viability, T/C (second compound 0.3 µM, first compound 0.316 µM) 1.16% | viability, T/C (second compound 0.3 µM, first compound 1 µM) 1.34% | viability, T/C (second compound 0.3 µM, first compound 3.16 µM) 1.57% | viability, T/C (second compound 0.3 µM, first compound 10 µM) 19.7%
< 31.6 nM: IC50 (second compound 0.00949 µM) | IC50 (second compound 0.03 µM) | IC50 (second compound 0.0949 µM) | IC50 (second compound 0.3 µM)

From PubChem BioAssay AID1845206 (Molecular Pharmacology Branch, DTP, NCI, 2023)
